Assay type in all cases: cell-based
Assay [1] has as its system SARS‐CoV‐2 spike protein pseudotyped lentivirus, D614G variant. The note with it: read-out: Pseudovirus assay, IC50, D614G.
Assay [2] concerns SARS‐CoV‐2 spike protein pseudotyped lentivirus, Omicron variant. In words: organism not typed. Conditions: read-out: Pseudovirus assay, IC50, Omicron.
Assay [3] has as its system SARS‐CoV‐2 spike protein pseudotyped lentivirus, Delta variant. In words: organism not typed. Conditions: read-out: Pseudovirus assay, IC50, Delta.
Assay [4] has as its system SARS‐CoV‐2 spike protein pseudotyped lentivirus, D614G, Delta, and Omicron variants. Conditions: for IC50: read-out: Pseudovirus assay, IC50 values as a range over D614G, Delta, and Omicron variants.

Where two headings read alike, the source gives them in different places.

As for `COc1cc2c3cc1Oc1c(O)c(OC)cc4c1[C@@H](Cc1ccc(O)c(c1)Oc1ccc(cc1)C[C@@H]3N(C)CC2)N(C)CC4` [Compound 19, (+)‐obamegine], the IC50 in assay [1] came to 1400 ± 350 nM; in assay [2] (HEK-293T) it was 1190 ± 160 nM; in assay [3] (HEK-293T), 2610 ± 420 nM.

With (±)‐Haemanthidine [Compound 1], the IC50 in assay [1] (mean ± SEM (n = 3)) and in assay [3] (mean ± SEM (n = 3)) was more than 10000 nM throughout. The “activity in SARS‐CoV‐2 S‐protein and ACE2 binding (pseudovirus) assay (in words)” value in assay [4] is “inactive at nontoxic concentration”.

With `CC(C)C[C@H](NC(=O)[C@H]1O[C@@H]1C(=O)O)C(=O)NCCCCN=C(N)N` [E‐64, reference compound], the IC50 is 23100 ± 630 nM in assay [1] (mean ± SEM (n = 3)), 22.7 to 23.1 µM in assay [4], 22700 ± 1280 nM in assay [2] (mean ± SEM (n = 3)) and 23100 ± 1300 nM in assay [3] (mean ± SEM (n = 3)).

Take (+)‐aromoline [Compound 16]: the IC50 was 670 ± 90 nM in assay [1], 0.47 to 0.66 µM in assay [4], 860 ± 120 nM in assay [2] (mean ± SEM (n = 3)) and 470 ± 80 nM in assay [3] (mean ± SEM (n = 3)).

Consider `COc1ccc2cc1Oc1ccc(cc1)C[C@H]1c3c(cc4c(c3Oc3cc5c(cc3OC)CCN(C)[C@@H]5C2)OCO4)CCN1C` [Cepharantine, Cepharanthine, reference compound], for which the values for the IC50 in assay [1], in assay [2] (HEK-293T) and in assay [3] (HEK-293T) were 480 ± 90 nM, 1310 ± 70 nM and 1640 ± 180 nM, respectively.

With `COc1cc2c3cc1Oc1c(OC)c(OC)cc4c1[C@@H](Cc1ccc(O)c(c1)Oc1ccc(cc1)C[C@@H]3N(C)CC2)N(C)CC4` [Compound 17, (+)‐berbamine], the IC50 stood at 2230 ± 490 nM in assay [1], 2290 ± 290 nM in assay [2] (HEK-293T) and 2560 ± 160 nM in assay [3] (HEK-293T).
